The experiment has as its target T1, PRDX6 (peroxiredoxin 6) (Homo sapiens, UniProt P30041).
T1 construct: recombinant human PRDX6 (SinoBiological), immobilized on CM5 chip
T1 sequence (P30041 2-224): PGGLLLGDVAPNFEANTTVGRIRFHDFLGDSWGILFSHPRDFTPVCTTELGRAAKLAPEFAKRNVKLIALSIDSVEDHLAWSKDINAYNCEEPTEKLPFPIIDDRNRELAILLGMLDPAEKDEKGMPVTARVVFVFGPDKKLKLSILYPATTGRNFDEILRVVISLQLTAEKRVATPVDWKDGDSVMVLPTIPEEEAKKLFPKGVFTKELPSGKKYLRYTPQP
As to the kind of experiment: SPR (Biacore T200); supported by MST (Kd […]), CETSA, DARTS, biotin-probe pulldown. It is filed as binding. On the technique in general: In SPR one partner is held on a chip, and binding of the other changes the refractive index at the surface.

pKd: −log10 of the molar value.

Take `O=c1cc(-c2ccc(O)cc2)oc2cc(O)cc(O)c12` [apigenin, 4′,5,7‐trihydroxyflavone]: the pKd is 6.63.

The term pKd denotes the negative decadic logarithm of the Kd, by convention in mol/L. A high value points to a low Kd.

These data come from paper PMC12120719, “Targeting Senescence with Apigenin Improves Chemotherapeutic Efficacy and Ameliorates Age‐Related Conditions in Mice” (Advanced Science, 2025).
